Holding throughout (assay type): in vivo, Kunming mice
Assay [1] concerns mice with diabetes mellitus induced by streptozotocin (STZ). Nature of the assay: Fast blood glucose (FBG) in mice with STZ-induced diabetes mellitus. The note with it: 25 mg/kg oral gavage daily, STZ diabetic mice, x ± S.D, n = 10. How it is done: Experimental animals: healthy male Kunming mice of clean grade (weighed 18-22 g, provided by Shanghai SLAC Laboratory Animal Co., Ltd.). Experimental method: […] The diabetes mellitus model mice were randomly grouped into a model group (STZ 120 mg/kg), a low-dose Saposhnikovia divaricata polysaccharide group (SDP 50 mg/kg), a high-dose Saposhnikovia divaricata polysaccharide (SDP 200 mg/kg) group, and a positive drug (Glibenclamide, GLI 25 mg/kg) control group, 10 mice per group. For each dosing group, the mice were dosed by oral gavage at 0.2 ml/10 g body weight at 8:00 am every day. The normal control group and the model group were given an equal volume of distilled water. During the experiment, the mice in each group were allowed to access to water ad arbitrium. The FBG and body weight were measured every 10 days. 30 days after the dosing, the mice were treated, and the following indexes were measured.

Assay [2] shares this test system. The assay is described as follows: Glucose tolerance (i.p. glucose load) in mice with STZ-induced diabetes mellitus. The note with it: 25 mg/kg, x ± S.D, n = 10. As to the method: Experimental method: The mice were kept at a temperature of 20±2° C. and a humidity of 50±5% under 12 hours of light and 12 hours of darkness for 3 days, during which the mice were allowed to access to food and water ad arbitrium. 10 healthy mice were selected as the normal control group (Control). The remaining mice were intraperitoneally injected with a streptozotocin (STZ) solution at 0.2 ml/10 g body weight. 72 h later, the fast blood glucose (FBG) of the mice was measured. The mice having an FBG value higher than 11.1 mmol/L and lower than 25 mmol/L were selected as diabetes mellitus model mice. The diabetes mellitus model mice were randomly grouped into a model group (STZ 120 mg/kg), a low-dose Saposhnikovia divaricata polysaccharide group (SDP 50 mg/kg), a high-dose Saposhnikovia divaricata polysaccharide (SDP 200 mg/kg) group, and a positive drug (Glibenclamide, GLI 25 mg/kg) control group, 10 mice per group. For each dosing group, the mice were dosed by oral gavage at 0.2 ml/10 g body weight at 8:00 am every day. The normal control group and the model group were given an equal volume of distilled water. During the experiment, the mice in each group were allowed to access to water ad arbitrium. The FBG and body weight were measured every 10 days. 30 days after the dosing, the mice were treated, and the following indexes were measured.
(1) Glucose tolerance: The mice were fasted at 8:00 the day before the end of the experiment. After 4 h, blood was collected from the orbit, and FBG was measured as the blood glucose level before administration of glucose (0 h). Then, all mice were intraperitoneally injected with a 10% glucose solution at 0.2 ml/10 g body weight. 0.5 hour (0.5 h) and 2 hours (2 h) after intraperitoneal injection of glucose, blood was collected from the orbit, and the blood glucose value was measured. The area under the blood glucose curve (AUC) was calculated according to the following equation: […]

Assay [3] has as its system mice with hyperlipoidemia. The assay is described as follows: Liver TC and TG contents and liver weight coefficient in mice with hyperlipoidemia. The note with it: positive drug 40 mg/kg. The source says: A hyperlipoidemia model was established with reference to the methods as described in the references (Liyan Sun, Zhenliang Liu, Jinxia Sun, et al., Effect of Imperata cylindrica polysaccharide on hypoxia tolerance in mice, China Journal of Hospital Pharmacy, 2008, 28(2): 96-99; Bin Leng, Intervention of immunoregulation and renal fibrosis by Imperata cylindrica polysaccharide in rats with IgA nephropathy, Dissertations of Guilin Medical University, 2013; Shijing Lv, Qicai Long, Deyuan He, et al., Regulation of lymphocyte proliferation and T cell subpopulation by Imperata cylindrica polysaccharide in patients with hepatitis B, [Conference Paper] 2001—The Second National Academic Conference on Immunology of Traditional Chinese Medicine). Experimental method: The mice were kept at a temperature of 20±2° C. and a humidity of 50±5% under 12 hours of light and 12 hours of darkness for 3 days, during which the mice were allowed to access to food and water ad arbitrium. […] The serum TC, TG, LDL-C and HDL-C levels were measured. A part of the liver tissue of the mice was took, homogenized, and measured for liver TC and TG contents, as well as SOD and GSH-px activities and MDA content. […]

In the case of `COc1ccc(Cl)cc1C(=O)NCCc1ccc(S(=O)(=O)NC(=O)NC2CCCCC2)cc1` [GLI, glibenclamide], the FBG in assay [1] (Day 0) was 12.58 ± 2.69 mmol/L; in assay [1] (Day 10) it was 15.95 ± 1.57 mmol/L; in assay [1] (Day 20), 18.56 ± 3.02 mmol/L; in assay [1] (Day 30), 20.44 ± 2.25 mmol/L. The Blood glucose in assay [2] (0 h (before glucose), after 30 days dosing) amounted to 20.44 ± 2.25 mmol/1; in assay [2] (0.5 h after i.p. glucose), 29.63 ± 2.24 mmol/1; in assay [2] (2 h after i.p. glucose), 27.60 ± 2.04 mmol/1. Further, the “Area under the curve (AUC)” value in assay [2] (blood glucose curve 0-2 h) turned out to be 40.62 ± 2.86.

For the compound `CC(C)OC(=O)C(C)(C)Oc1ccc(C(=O)c2ccc(Cl)cc2)cc1` [Lipanthyl, Fenofibrate], the liver weight coefficient result in assay [3] is “significantly increased”. Besides, in assay [3] (vs high-fat model group, P<0.01), the “liver TC content” value is “significantly lower”.
